In patent US4933104A, “Anthraquinone derivative as a dichroic dye for a liquid-crystal material, liquid-crystal material and an electrooptical device” (priority 1986, dated 1990):

Tests used:
Assay type in all cases: physicochemical
[1] = λmax of the long-wave absorption band of the dye; conditions: Table 7; two values = two maxima
Description: A weighed sample of one or several anthraquinone derivatives of general formula /1/ is dissolved upon heating to 60° C. in a liquid-crystalmatrix and then cooled to 20° C.

[2] = limiting solubility in liquid-crystalline mixtures at 20° C.; conditions: for Solubility (limiting), known derivatives: Table 6, derivatives of SU 1089084
[3] = λmax of the long-wave absorption band of the dye; conditions: Table 1 / Examples; several values = several maxima
Description: (§1) Table 1 given below lists the values of negative dichroism of the anthraquinone derivative of general formula /1/ for examples 1-30 in a liquid-crystalline mixture ZK-807; Table 2 illustrates physico-chemical characteristics, and Table 3--limiting solubility in liquid-crystalline mixtures (ZK-807, ZLI-1840, 3010, SP-586, ZK-1282) at 20° C.

[4] = negative dichroism S in a liquid-crystalline mixture; conditions: liquid-crystalline mixture ZK-807
Description: as §1

Structure (SMILES)	λmax, known derivatives [1]	Solubility (limiting), known derivatives ([2]; ZK-807, 20° C.)	Solubility (limiting), known derivatives ([2]; ZLI-1840, 20° C.)	λmax [3]	negative dichroism S [4]	Solubility (limiting) ([2]; 3010, 20° C.)	Solubility (limiting) ([2]; ZK-807, 20° C.)	Solubility (limiting) ([2]; ZLI-1840, 20° C.)	Solubility (limiting) ([2]; SP-586, 20° C.)	Solubility (limiting) ([2]; ZK-1282, 20° C.)
CCCCc1ccc(C(=O)Nc2ccc(O)c3c2C(=O)c2c(NC(=O)c4ccc(CCCC)cc4)ccc(O)c2C3=O)cc1 [No. 7, Table 6, reference compound]	560 nm	0.1 mass %	–	–	–	–	–	–	–	–
CCCCCCc1ccc(C(=O)Nc2ccc(NC(=O)c3ccc(CCCCCC)cc3)c3c2C(=O)c2ccccc2C3=O)cc1 [No. 4, Table 6, reference compound]	512 nm	2.3 mass %	0.6 mass %	–	–	–	–	–	–	–
CCCCc1ccc(C(=O)Nc2ccc(O)c3c2C(=O)c2c(NC(=O)c4ccc(CCCC)cc4)ccc(OC(=O)c4ccc(CCCC)cc4)c2C3=O)cc1 [No. 8, Table 6, reference compound]	535 nm	1.0 mass %	0.3 mass %	–	–	–	–	–	–	–
CCCCc1ccc(C(=O)Nc2ccc(NC(=O)c3ccc(CCCC)cc3)c3c2C(=O)c2ccccc2C3=O)cc1 [No. 3, Table 6, reference compound]	508 nm	2.0 mass %	0.3 mass %	–	–	–	–	–	–	–
CCCCCCc1ccc(C(=O)Nc2ccc(OC(=O)c3ccc(CCCCCC)cc3)c3c2C(=O)c2c(NC(=O)c4ccc(CCCCCC)cc4)ccc(OC(=O)c4ccc(CCCCCC)cc4)c2C3=O)cc1 [No. 5, Table 6, reference compound]	468 nm	0.5 mass %	0.1 mass %	–	–	–	–	–	–	–
CCCCCC1CCC(c2ccc(C(=O)Nc3ccc(O)c4c3C(=O)c3c(NC(=O)c5ccc(C6CCC(CCCCC)CC6)cc5)ccc(OC(=O)c5ccc(C6CCC(CCCCC)CC6)cc5)c3C4=O)cc2)CC1 (centres unmarked) [No. 10, Table 6, reference compound]	554 nm	0.2 mass %	0.6 mass %	–	–	–	–	–	–	–
CCCCc1cc(NC(=O)c2ccc(C3CCC(CCCC)CC3)cc2)c2c(c1O)C(=O)c1c(OC(=O)CCC)c(CCCC)cc(NC(=O)c3ccc(C4CCC(CCCC)CC4)cc3)c1C2=O (centres unmarked) [Compound 23]	–	–	–	542 nm	-0.36	2.0 mass %	1.7 mass %	2.6 mass %	–	–
CCCCc1ccc(C(=O)Nc2ccc(OC(=O)c3ccc(CCCC)cc3)c3c2C(=O)c2c(NC(=O)c4ccc(CCCC)cc4)ccc(OC(=O)c4ccc(CCCC)cc4)c2C3=O)cc1 [No. 6, Table 6, reference compound]	470 nm	0.5 mass %	–	–	–	–	–	–	–	–
CCCCCCC1CCC(c2ccc(C(=O)Nc3cc(CCCC)c(O)c4c3C(=O)c3c(NC(=O)c5ccc(C6CCC(CCCCCC)CC6)nc5Cl)cc(CCCC)c(OC(=O)c5ccc(C6CCC(CCCCCC)CC6)nc5Cl)c3C4=O)c(Cl)n2)CC1 (centres unmarked) [Compound 20]	–	–	–	534 nm	-0.33	0.75 mass %	1.2 mass %	0.7 mass %	–	–
CCCCc1cc(NC(=O)c2ccc(C3CCC(CCCC)CC3)cc2)c2c(c1OC(=O)CCC)C(=O)c1c(OC(=O)CCC)c(CCCC)cc(NC(=O)c3ccc(C4CCC(CCCC)CC4)cc3)c1C2=O (centres unmarked) [Compound 13]	–	–	–	470 nm	-0.37	1.75 mass %	4.9 mass %	2.1 mass %	–	–
CCCCCCc1ccc(C(=O)Nc2ccc(O)c3c2C(=O)c2c(NC(=O)c4ccc(CCCCCC)cc4)ccc(O)c2C3=O)cc1 [No. 9, Table 6, reference compound]	562 nm	0.1 mass %	–	–	–	–	–	–	–	–
CCCCCCC1CCC(C(=O)Nc2ccc(OC(=O)C3CCC(CCCCCC)CC3)c3c2C(=O)c2c(NC(=O)C4CCC(CCCCCC)CC4)cc(C)c(OC(=O)C4CCC(CCCCCC)CC4)c2C3=O)CC1 (centres unmarked) [Compound 5]	–	–	–	461 nm	-0.37	1.0 mass %	3.0 mass %	–	–	–
CCCCCC1CCC(c2ccc(C(=O)Nc3cc(CCCC)c(O)c4c3C(=O)c3c(NC(=O)c5ccc(C6CCC(CCCCC)CC6)cc5)cc(CCCC)c(OC(=O)CCC)c3C4=O)cc2)CC1 (centres unmarked) [Compound 22]	–	–	–	545 nm	-0.38	2.0 mass %	1.1 mass %	1.4 mass %	1.2 mass %	1.5 mass %
